# Experimental data published in patent publication US9302999B2, “Substituted triazoles as herbicides” (E. I. DU PONT DE NEMOURS AND COMPANY, priority 2012, dated 2016).
# Columns and labels:
# Assay type in all cases: in vivo
# [1] = tested on: wheat (Triticum aestivum); assay: Test A pre-/postemergence: wheat; settings: for Wheat plant response rating: visual rating on 0 to 100 scale (0 no effect, 100 complete control), approximately ten days
# Procedure, shortened: (§1)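 Plants in loam–sand blend were treated with test chemicals in non-phytotoxic solvent with surfactant, either as preemergence directed soil spray or postemergence at 2–10 cm, one- to two-leaf stage. After about ten days in greenhouse, injury was rated visually against untreated controls on a 0–100 scale (100 = complete control).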
# [2] = tested on: nutsedge, yellow (yellow nutsedge, Cyperus esculentus); assay: Test C pre-/postemergence: nutsedge, yellow
# Procedure, shortened: (§2)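 Preemergence on seeds in loam/sand, postemergence on 2–18 cm (1–4-leaf) plants in peat-based medium; compounds in non-phytotoxic solvent with surfactant. After 13–15 days in greenhouse, visual rating versus controls, 0 (no effect) to 100 (complete control).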
# [3] = tested on: lambsquarters (Chenopodium album); assay: Test C pre-/postemergence: lambsquarters
# Procedure, shortened: as §2
# [4] = tested on: pigweed (Amaranthus retroflexus); assay: Test A pre-/postemergence: pigweed; settings: for Pigweed plant response rating: visual rating on 0 to 100 scale (0 no effect, 100 complete control), approximately ten days
# Procedure, shortened: as §1
# [5] = tested on: crabgrass, large (large crabgrass, Digitaria sanguinalis); assay: Test A pre-/postemergence: crabgrass, large; settings: for Crabgrass, Large plant response rating: Postemergence; for Plant response rating, Crabgrass, Large: Preemergence
# Procedure, shortened: as §1
# [6] = tested on: foxtail, giant (giant foxtail, Setaria faberii); assay: Test C pre-/postemergence: foxtail, giant
# Procedure, shortened: as §2
# corn (Zea mays) = assay: Test A pre-/postemergence: corn; settings: for Corn plant response rating: Postemergence; for Plant response rating, Corn: Preemergence
# Procedure, shortened: as §1
# [7] = tested on: barnyardgrass (Echinochloa crus-galli); assay: Test A pre-/postemergence: barnyardgrass; settings: for Barnyardgrass plant response rating: Postemergence; for Plant response rating, Barnyardgrass: Preemergence
# Procedure, shortened: as §1
# soybean (Glycine max) = assay: Test C pre-/postemergence: soybean
# Procedure, shortened: as §2
# [8] = tested on: ryegrass, Italian (Italian ryegrass, Lolium multiflorum); assay: Test C pre-/postemergence: ryegrass, Italian
# Procedure, shortened: as §2
# [9] = tested on: winter wheat (Triticum aestivum); assay: Test C pre-/postemergence: winter wheat
# Procedure, shortened: as §2
# [10] = Postemergence, 125 g ai/ha, 0 to 100 scale, 0 is no effect, 100 is complete control
# [11] = Preemergence, 125 g ai/ha, 0 to 100 scale where 0 is no effect and 100 is complete control
# [12] = Preemergence, 500 g ai/ha, 0 to 100 scale (0 no effect, 100 complete control)
# [13] = Postemergence, 31 g ai/ha, scale 0 to 100 (0 no effect, 100 complete control)
# [14] = Postemergence, 62 g ai/ha, scale 0 to 100 (0 no effect, 100 complete control)
# [15] = Postemergence, 125 g ai/ha, scale 0 to 100, 0 no effect, 100 complete control
# [16] = Postemergence, 250 g ai/ha, scale 0 to 100
# [17] = Preemergence, 125 g ai/ha, scale 0 to 100, 0 no effect, 100 complete control
# [18] = Preemergence, 250 g ai/ha, scale 0 to 100, 0 no effect, 100 complete control
# [19] = Preemergence, 31 g ai/ha, scale of 0 to 100, 0 is no effect, 100 is complete control
# [20] = Preemergence, 62 g ai/ha, scale of 0 to 100, 0 is no effect, 100 is complete control
# [21] = 125 g ai/ha, 0 to 100 scale, 0 is no effect, 100 is complete control
# [22] = 500 g ai/ha, visual rating on 0 to 100 scale (0 no effect, 100 complete control), approximately ten days
# [23] = 125 g ai/ha, 0 to 100 scale where 0 is no effect and 100 is complete control
# [24] = 500 g ai/ha, 0 to 100 scale (0 no effect, 100 complete control)
structure (smiles),measurement,setting,value
Cc1nn(-c2ccc(F)c(F)c2)nc1Oc1ccnc(C(F)(F)F)c1 [Compound 145],"Plant response rating, Wheat",[1]; [10],20
same,Wheat plant response rating,"[1]; Postemergence, 500 g ai/ha",50
same,"Plant response rating, Wheat",[1]; [11],20
same,"Plant response rating, Wheat",[1]; [12],60
same,"Plant response rating, Nutsedge, Yellow",[2]; [13],5
same,"Plant response rating, Nutsedge, Yellow",[2]; [14],10
same,"Plant response rating, Nutsedge, Yellow",[2]; [15],15
same,"Plant response rating, Nutsedge, Yellow",[2]; [16],15
same,"Plant response rating, Nutsedge, Yellow",[2]; [17],5
same,"Plant response rating, Nutsedge, Yellow",[2]; [18],10
same,"Plant response rating, Lambsquarters",[3]; [13],95
same,"Plant response rating, Lambsquarters",[3]; [14],95
same,"Plant response rating, Lambsquarters",[3]; [15],95
same,"Plant response rating, Lambsquarters",[3]; [16],95
same,"Plant response rating, Lambsquarters",[3]; [19],55
same,"Plant response rating, Lambsquarters",[3]; [20],85
same,"Plant response rating, Lambsquarters",[3]; [17],95
same,"Plant response rating, Lambsquarters",[3]; [18],98
same,"Plant response rating, Pigweed",[4]; [10],100
same,Pigweed plant response rating,"[4]; Postemergence, 500 g ai/ha",100
same,"Plant response rating, Pigweed",[4]; [11],100
same,"Plant response rating, Pigweed",[4]; [12],100
same,"Crabgrass, Large plant response rating",[5]; [21],90
same,"Crabgrass, Large plant response rating",[5]; [22],90
same,"Plant response rating, Crabgrass, Large",[5]; [23],100
same,"Plant response rating, Crabgrass, Large",[5]; [24],100
same,"Plant response rating, Foxtail, Giant",[6]; [13],15
same,"Plant response rating, Foxtail, Giant",[6]; [14],20
same,"Plant response rating, Foxtail, Giant",[6]; [15],50
same,"Plant response rating, Foxtail, Giant",[6]; [16],85
same,"Plant response rating, Foxtail, Giant",[6]; [19],95
same,"Plant response rating, Foxtail, Giant",[6]; [20],100
same,"Plant response rating, Foxtail, Giant",[6]; [17],100
same,"Plant response rating, Foxtail, Giant",[6]; [18],100
same,Corn plant response rating,corn (Zea mays); [21],40
same,Corn plant response rating,corn (Zea mays); [22],90
same,"Plant response rating, Corn",corn (Zea mays); [23],10
same,"Plant response rating, Corn",corn (Zea mays); [24],40
same,Barnyardgrass plant response rating,[7]; [21],80
same,Barnyardgrass plant response rating,[7]; [22],90
same,"Plant response rating, Barnyardgrass",[7]; [23],100
same,"Plant response rating, Barnyardgrass",[7]; [24],100
same,"Plant response rating, Soybean",soybean (Glycine max); [13],50
same,"Plant response rating, Soybean",soybean (Glycine max); [14],50
same,"Plant response rating, Soybean",soybean (Glycine max); [15],55
same,"Plant response rating, Soybean",soybean (Glycine max); [16],60
same,"Plant response rating, Soybean",soybean (Glycine max); [20],5
same,"Plant response rating, Soybean",soybean (Glycine max); [17],5
same,"Plant response rating, Soybean",soybean (Glycine max); [18],10
same,"Plant response rating, Ryegrass, Italian",[8]; [13],20
same,"Plant response rating, Ryegrass, Italian",[8]; [14],30
same,"Plant response rating, Ryegrass, Italian",[8]; [15],40
same,"Plant response rating, Ryegrass, Italian",[8]; [16],50
same,"Plant response rating, Ryegrass, Italian",[8]; [19],5
same,"Plant response rating, Ryegrass, Italian",[8]; [20],35
same,"Plant response rating, Ryegrass, Italian",[8]; [17],90
same,"Plant response rating, Ryegrass, Italian",[8]; [18],90
same,"Plant response rating, Wheat",[9]; [13],5
same,"Plant response rating, Wheat",[9]; [14],15
same,"Plant response rating, Wheat",[9]; [15],30
same,"Plant response rating, Wheat",[9]; [16],40
same,"Plant response rating, Wheat",[9]; [20],5
same,"Plant response rating, Wheat",[9]; [17],5
same,"Plant response rating, Wheat",[9]; [18],50
Cc1nn(-c2ccc(F)c(C(F)(F)F)c2)nc1Oc1ccnc(C(F)(F)F)c1 [Compound 147],"Plant response rating, Wheat",[1]; [10],20
same,Wheat plant response rating,"[1]; Postemergence, 500 g ai/ha",50
same,"Plant response rating, Wheat",[1]; [11],30
same,"Plant response rating, Wheat",[1]; [12],50
same,"Plant response rating, Nutsedge, Yellow",[2]; [19],0
same,"Plant response rating, Nutsedge, Yellow",[2]; [20],0
same,"Plant response rating, Nutsedge, Yellow",[2]; [17],0
same,"Plant response rating, Nutsedge, Yellow",[2]; [18],15
same,"Plant response rating, Lambsquarters",[3]; [19],35
same,"Plant response rating, Lambsquarters",[3]; [20],45
same,"Plant response rating, Lambsquarters",[3]; [17],80
same,"Plant response rating, Lambsquarters",[3]; [18],80
same,"Plant response rating, Pigweed",[4]; [10],100
same,Pigweed plant response rating,"[4]; Postemergence, 500 g ai/ha",100
same,"Plant response rating, Pigweed",[4]; [11],100
same,"Plant response rating, Pigweed",[4]; [12],100
same,"Crabgrass, Large plant response rating",[5]; [21],80
same,"Crabgrass, Large plant response rating",[5]; [22],90
same,"Plant response rating, Crabgrass, Large",[5]; [23],100
same,"Plant response rating, Crabgrass, Large",[5]; [24],100
same,"Plant response rating, Foxtail, Giant",[6]; [19],85
same,"Plant response rating, Foxtail, Giant",[6]; [20],98
same,"Plant response rating, Foxtail, Giant",[6]; [17],100
same,"Plant response rating, Foxtail, Giant",[6]; [18],100
same,Corn plant response rating,corn (Zea mays); [21],30
same,Corn plant response rating,corn (Zea mays); [22],40
same,"Plant response rating, Corn",corn (Zea mays); [23],10
same,"Plant response rating, Corn",corn (Zea mays); [24],30
same,Barnyardgrass plant response rating,[7]; [21],80
same,Barnyardgrass plant response rating,[7]; [22],80
same,"Plant response rating, Barnyardgrass",[7]; [23],90
same,"Plant response rating, Barnyardgrass",[7]; [24],100
same,"Plant response rating, Soybean",soybean (Glycine max); [20],20
same,"Plant response rating, Soybean",soybean (Glycine max); [17],20
same,"Plant response rating, Soybean",soybean (Glycine max); [18],35
same,"Plant response rating, Ryegrass, Italian",[8]; [19],10
same,"Plant response rating, Ryegrass, Italian",[8]; [20],50
same,"Plant response rating, Ryegrass, Italian",[8]; [17],85
same,"Plant response rating, Ryegrass, Italian",[8]; [18],95
same,"Plant response rating, Wheat",[9]; [20],5
same,"Plant response rating, Wheat",[9]; [17],30
same,"Plant response rating, Wheat",[9]; [18],45
